Assay results: paper PMC4303209, “A novel phosphatidylinositol 3-kinase (PI3K) inhibitor directs a potent FOXO-dependent, p53-independent cell cycle arrest phenotype characterized by the differential induction of a subset of FOXO-regulated genes” (Breast Cancer Research : BCR, 2014)

Tested on: MCF-7 breast cancer cells
Assay: Microarray gene expression analysis (Agilent whole human genome 4 x 44K; compound vs DMSO, LIMMA log2 fold change)
Format: cell-based
Details: Apoptosis genes

Compound: Oc1cccc(-c2nc(N3CCOCC3)c3oc4ncccc4c3n2)c1 [PI-103]
- ITGB3BP log2FC (Gene 23421): 0.693
- RYBP log2FC (Gene 23429): 0.361
- HEY2 log2FC (Gene 23493): -0.116
- SCRIB log2FC (Gene 23513): 0.029
- CLCF1 log2FC (Gene 23529): -0.682
- PRAME log2FC (Gene 23532): -0.450
- DDAH2 log2FC (Gene 23564): 0.378
- ZNF346 log2FC (Gene 23567): -0.012
- CASP14 log2FC (Gene 23581): -0.041
- NUP62 log2FC (Gene 23636): -0.627
- PPP1R15A log2FC (Gene 23645): 0.513
- AIPL1 log2FC (Gene 23746): 0.177
- FKBP8 log2FC (Gene 23770): 0.044
- BCL2L13 log2FC (Gene 23786): 0.110
- MTCH1 log2FC (Gene 23787): 0.149
- NGEF log2FC (Gene 25791): 0.857
- SPDEF log2FC (Gene 25803): -0.186
- TNFAIP8 log2FC (Gene 25816): 0.677
- PRDX5 log2FC (Gene 25824): 0.047
- BRMS1 log2FC (Gene 25855): -0.476
- SIN3A log2FC (Gene 25942): 0.891
- HIGD1A log2FC (Gene 25994): -0.106
- SERBP1 log2FC (Gene 26135): 0.167
- NOC2L log2FC (Gene 26155): -0.855
- TIAM2 log2FC (Gene 26230): 0.365
- AATF log2FC (Gene 26574): -0.415
- GREM1 log2FC (Gene 26585): -0.405
- CKAP2 log2FC (Gene 26586): 0.629
- CYFIP2 log2FC (Gene 26999): 0.053
- NGFRAP1 log2FC (Gene 27018): 0.277
- ANKRD1 log2FC (Gene 27063): 0.350
- GHITM log2FC (Gene 27069): 0.386
- BBC3 log2FC (Gene 27113): 2.072
- CIDEB log2FC (Gene 27141): -0.033
- GLS2 log2FC (Gene 27165): 0.410
- TNFRSF21 log2FC (Gene 27242): -1.071
- PDCD4 log2FC (Gene 27250): 1.703
- KLHL20 log2FC (Gene 27252): 0.115
- CECR2 log2FC (Gene 27443): -0.150
- DBNL log2FC (Gene 28988): -0.248
- HIPK2 log2FC (Gene 28996): -0.140
- SAP30BP log2FC (Gene 29115): -0.468
- LGALS13 log2FC (Gene 29124): -0.059
- CARD10 log2FC (Gene 29775): -0.449
- SENP1 log2FC (Gene 29843): 0.227
- TFPT log2FC (Gene 29844): -0.472
- PNMA3 log2FC (Gene 29944): 0.668
- UBQLN1 log2FC (Gene 29979): -0.069
- ERO1L log2FC (Gene 30001): 0.078
- SH3KBP1 log2FC (Gene 30011): 0.268
- KCNIP3 log2FC (Gene 30818): 0.232
- RRM2B log2FC (Gene 50484): 0.526
- G0S2 log2FC (Gene 50486): -0.054
- NOX4 log2FC (Gene 50507): 0.041
- CHST11 log2FC (Gene 50515): -0.946
- ARHGEF4 log2FC (Gene 50649): 0.008
- ARHGEF3 log2FC (Gene 50650): 0.506
- GLRX2 log2FC (Gene 51022): -0.261
- RPS27L log2FC (Gene 51065): 0.277
- APIP log2FC (Gene 51074): 0.039
- NDUFA13 log2FC (Gene 51079): -0.041
- GAL log2FC (Gene 51083): -0.333
- SH3GLB1 log2FC (Gene 51100): 0.561
- APH1A log2FC (Gene 51107): -0.371
- UTP11L log2FC (Gene 51118): -0.906
- IER3IP1 log2FC (Gene 51124): 0.357
- ANGPTL4 log2FC (Gene 51129): -0.819
- ING4 log2FC (Gene 51147): 1.595
- LEF1 log2FC (Gene 51176): -0.888
- BFAR log2FC (Gene 51283): 0.201
- PLAC8 log2FC (Gene 51316): -0.057
- TNFRSF12A log2FC (Gene 51330): -0.619
- ANGPT4 log2FC (Gene 51378): 0.049
- DDX41 log2FC (Gene 51428): -0.065
- GULP1 log2FC (Gene 51454): 1.663
- TRIAP1 log2FC (Gene 51499): -0.858
- ZC3HC1 log2FC (Gene 51530): 0.156
- PIAS4 log2FC (Gene 51588): -0.121
- PIGT log2FC (Gene 51604): 0.362
- TAF9B log2FC (Gene 51616): 0.327
- PTRH2 log2FC (Gene 51651): -0.374
- WWOX log2FC (Gene 51741): -0.808
- SIX4 log2FC (Gene 51804): 0.497
- IL20RA log2FC (Gene 53832): 0.039
- CYCS log2FC (Gene 54205): -0.602
- WNT4 log2FC (Gene 54361): -0.419
- DNAJC10 log2FC (Gene 54431): 0.610
- ZFAND6 log2FC (Gene 54469): 0.333
- ADAMTSL4 log2FC (Gene 54507): -0.373
- DDIT4 log2FC (Gene 54541): -1.201
- ING3 log2FC (Gene 54556): 0.724
- RRN3 log2FC (Gene 54700): -0.333
- AHI1 log2FC (Gene 54806): 0.380
- QRICH1 log2FC (Gene 54870): 0.076
- TMEM161A log2FC (Gene 54929): -0.337
- PHIP log2FC (Gene 55023): 1.071
- USP47 log2FC (Gene 55031): 0.614
- OXR1 log2FC (Gene 55074): 0.376
- UACA log2FC (Gene 55075): 0.829
- IFT57 log2FC (Gene 55081): 0.433
- XKR8 log2FC (Gene 55113): 0.252
- SHQ1 log2FC (Gene 55164): -0.188
- FAIM log2FC (Gene 55179): 0.119
- MAP1S log2FC (Gene 55201): -0.149
- ATAD3A log2FC (Gene 55210): -0.126
- STEAP3 log2FC (Gene 55240): -0.441
- RHOT1 log2FC (Gene 55288): 0.535
- RFK log2FC (Gene 55312): 0.631
- PARL log2FC (Gene 55486): -0.181
- TNFRSF19 log2FC (Gene 55504): -0.091
- CCAR1 log2FC (Gene 55749): 0.552
- PCID2 log2FC (Gene 55795): 0.323
- RNF130 log2FC (Gene 55819): 0.00747
- EAF2 log2FC (Gene 55840): 0.144
- PSENEN log2FC (Gene 55851): -0.013
- BCAP29 log2FC (Gene 55973): 0.083
- TEX11 log2FC (Gene 56159): 0.000672
- CTNNBL1 log2FC (Gene 56259): -0.138
- DIABLO log2FC (Gene 56616): -0.156
- ASAH2 log2FC (Gene 56624): -0.210
- TRIM39 log2FC (Gene 56658): -0.128
- BARHL1 log2FC (Gene 56751): -0.298
- FMN2 log2FC (Gene 56776): 0.00262
- SPHK2 log2FC (Gene 56848): -0.341
- C8orf4 log2FC (Gene 56892): 0.00123
- MEIS3 log2FC (Gene 56917): -0.122
- DUSP22 log2FC (Gene 56940): 0.209
- CIAPIN1 log2FC (Gene 57019): -0.420
- PCBP4 log2FC (Gene 57060): -0.275
- AVEN log2FC (Gene 57099): -0.638
- CAMK1D log2FC (Gene 57118): -0.189
- RTN4 log2FC (Gene 57142): -0.088
- PAK7 log2FC (Gene 57144): 0.451
- BIRC6 log2FC (Gene 57448): 0.144
- TAOK1 log2FC (Gene 57551): 0.399
- SEMA6A log2FC (Gene 57556): 0.047
- SH3RF1 log2FC (Gene 57630): -0.495
- USP28 log2FC (Gene 57646): 0.030
- GPAM log2FC (Gene 57678): -0.052
- CHD8 log2FC (Gene 57680): -0.161
- TRIB3 log2FC (Gene 57761): 0.076
- NGB log2FC (Gene 58157): -0.260
- RBM25 log2FC (Gene 58517): 0.334
- SAV1 log2FC (Gene 60485): 0.586
- PROK2 log2FC (Gene 60675): -0.058
- ELMO2 log2FC (Gene 63916): 0.585
- CIDEC log2FC (Gene 63924): 0.292
- FIGNL1 log2FC (Gene 63979): -0.235
- PERP log2FC (Gene 64065): 0.731
- MOAP1 log2FC (Gene 64112): 0.507
- RRAGC log2FC (Gene 64121): 1.556
- IFIH1 log2FC (Gene 64135): 0.872
- ZMAT3 log2FC (Gene 64393): -0.151
- ATG3 log2FC (Gene 64422): 0.194
- SUDS3 log2FC (Gene 64426): -0.027
- MICAL1 log2FC (Gene 64780): -0.125
- PLEKHG2 log2FC (Gene 64857): -0.516
